Measured values from the kinase profiling compilation of Christmann-Franck et al. (2016).

Key:
[1] = target: CAMK2D (human) (UniProt Q13557); assay: KINOMEscan competition binding; conditions: compound 10.0 µM
[2] = target: CAMK2G (human) (UniProt Q13555); assay: KINOMEscan competition binding; conditions: compound 10.0 µM
[3] = target: CAMKK2 (human) (UniProt Q96RR4); assay: KINOMEscan competition binding; conditions: compound 10.0 µM
[4] = target: PIK3C2B (human) (UniProt O00750); assay: KINOMEscan competition binding; conditions: compound 10.0 µM
[5] = test system: ABL1 (human), P00519 [F317I]; assay: KINOMEscan competition binding; conditions: compound 10.0 µM
[6] = target: DCLK1 (human) (UniProt O15075); assay: KINOMEscan competition binding; conditions: compound 10.0 µM
Sequence of DCLK1 (human) (O15075 whole entry, looked up): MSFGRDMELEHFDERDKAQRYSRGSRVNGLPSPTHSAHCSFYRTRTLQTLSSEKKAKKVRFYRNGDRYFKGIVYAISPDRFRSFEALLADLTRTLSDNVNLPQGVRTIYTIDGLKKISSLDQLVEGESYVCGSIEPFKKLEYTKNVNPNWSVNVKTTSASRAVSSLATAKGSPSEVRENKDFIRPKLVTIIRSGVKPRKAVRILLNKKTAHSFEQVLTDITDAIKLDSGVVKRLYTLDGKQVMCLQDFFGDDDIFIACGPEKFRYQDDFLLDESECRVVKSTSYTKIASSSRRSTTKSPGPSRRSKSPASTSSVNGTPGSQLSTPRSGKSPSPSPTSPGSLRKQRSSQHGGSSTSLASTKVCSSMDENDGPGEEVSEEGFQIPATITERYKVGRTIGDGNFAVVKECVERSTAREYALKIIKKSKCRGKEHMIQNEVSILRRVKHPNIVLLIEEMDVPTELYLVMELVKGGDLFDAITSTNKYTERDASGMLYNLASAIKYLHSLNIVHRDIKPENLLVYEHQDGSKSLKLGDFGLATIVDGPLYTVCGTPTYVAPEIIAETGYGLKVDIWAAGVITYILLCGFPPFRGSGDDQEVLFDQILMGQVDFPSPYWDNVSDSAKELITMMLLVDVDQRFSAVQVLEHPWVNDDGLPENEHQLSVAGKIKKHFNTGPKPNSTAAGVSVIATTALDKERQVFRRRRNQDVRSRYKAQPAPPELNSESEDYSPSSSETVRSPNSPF

[7] = target: DCLK2 (human) (UniProt Q8N568); assay: KINOMEscan competition binding; conditions: compound 10.0 µM
Sequence of DCLK2 (human) (Q8N568 whole entry, looked up): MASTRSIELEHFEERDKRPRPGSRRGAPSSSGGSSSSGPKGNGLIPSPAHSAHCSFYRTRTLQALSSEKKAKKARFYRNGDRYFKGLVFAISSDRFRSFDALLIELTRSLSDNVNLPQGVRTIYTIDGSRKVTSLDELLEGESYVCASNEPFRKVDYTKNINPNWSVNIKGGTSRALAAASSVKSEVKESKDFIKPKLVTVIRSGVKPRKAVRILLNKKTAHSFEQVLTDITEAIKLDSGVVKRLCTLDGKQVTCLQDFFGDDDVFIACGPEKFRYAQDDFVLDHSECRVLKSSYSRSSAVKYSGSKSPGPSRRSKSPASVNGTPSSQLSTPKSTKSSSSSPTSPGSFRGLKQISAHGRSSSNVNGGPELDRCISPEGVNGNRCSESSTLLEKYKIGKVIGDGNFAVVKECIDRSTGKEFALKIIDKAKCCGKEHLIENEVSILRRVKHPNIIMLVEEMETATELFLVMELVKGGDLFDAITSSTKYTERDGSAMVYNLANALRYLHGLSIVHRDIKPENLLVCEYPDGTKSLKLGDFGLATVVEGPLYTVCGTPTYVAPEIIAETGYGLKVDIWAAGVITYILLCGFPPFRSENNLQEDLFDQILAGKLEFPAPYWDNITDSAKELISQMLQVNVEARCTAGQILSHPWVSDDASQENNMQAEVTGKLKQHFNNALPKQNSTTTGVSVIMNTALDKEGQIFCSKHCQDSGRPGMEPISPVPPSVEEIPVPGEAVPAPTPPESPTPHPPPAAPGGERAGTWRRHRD

[8] = target: DCLK3 (human) (UniProt Q9C098); assay: KINOMEscan competition binding; conditions: compound 10.0 µM
[9] = target: FLT3 (human) (UniProt P36888); assay: KINOMEscan competition binding; conditions: compound 10.0 µM
[10] = test system: FLT3 (human), P36888 [D835H]; assay: KINOMEscan competition binding; conditions: compound 10.0 µM
[11] = test system: FLT3 (human), P36888 [D835Y]; assay: KINOMEscan competition binding; conditions: compound 10.0 µM
[12] = test system: FLT3 (human), P36888 [ITD]; assay: KINOMEscan competition binding; conditions: compound 10.0 µM
[13] = test system: FLT3 (human), P36888 [K663Q]; assay: KINOMEscan competition binding; conditions: compound 10.0 µM
[14] = test system: FLT3 (human), P36888 [N841I]; assay: KINOMEscan competition binding; conditions: compound 10.0 µM
[15] = target: MAPK7 (human) (UniProt Q13164); assay: KINOMEscan competition binding; conditions: compound 10.0 µM
[16] = target: MYLK4 (human) (UniProt Q86YV6); assay: KINOMEscan competition binding; conditions: compound 10.0 µM
[17] = target: PIP5K1A (human) (UniProt Q99755); assay: KINOMEscan competition binding; conditions: compound 10.0 µM
[18] = target: PTK6 (human) (UniProt Q13882); assay: KINOMEscan competition binding; conditions: compound 10.0 µM
[19] = target: RPS6KA1 KD2 (human) (UniProt Q15418); assay: KINOMEscan competition binding; conditions: compound 10.0 µM
[20] = target: RPS6KA6 KD2 (human) (UniProt Q9UK32); assay: KINOMEscan competition binding; conditions: compound 10.0 µM
Sequence of RPS6KA6 KD2 (human) (Q9UK32 whole entry, looked up): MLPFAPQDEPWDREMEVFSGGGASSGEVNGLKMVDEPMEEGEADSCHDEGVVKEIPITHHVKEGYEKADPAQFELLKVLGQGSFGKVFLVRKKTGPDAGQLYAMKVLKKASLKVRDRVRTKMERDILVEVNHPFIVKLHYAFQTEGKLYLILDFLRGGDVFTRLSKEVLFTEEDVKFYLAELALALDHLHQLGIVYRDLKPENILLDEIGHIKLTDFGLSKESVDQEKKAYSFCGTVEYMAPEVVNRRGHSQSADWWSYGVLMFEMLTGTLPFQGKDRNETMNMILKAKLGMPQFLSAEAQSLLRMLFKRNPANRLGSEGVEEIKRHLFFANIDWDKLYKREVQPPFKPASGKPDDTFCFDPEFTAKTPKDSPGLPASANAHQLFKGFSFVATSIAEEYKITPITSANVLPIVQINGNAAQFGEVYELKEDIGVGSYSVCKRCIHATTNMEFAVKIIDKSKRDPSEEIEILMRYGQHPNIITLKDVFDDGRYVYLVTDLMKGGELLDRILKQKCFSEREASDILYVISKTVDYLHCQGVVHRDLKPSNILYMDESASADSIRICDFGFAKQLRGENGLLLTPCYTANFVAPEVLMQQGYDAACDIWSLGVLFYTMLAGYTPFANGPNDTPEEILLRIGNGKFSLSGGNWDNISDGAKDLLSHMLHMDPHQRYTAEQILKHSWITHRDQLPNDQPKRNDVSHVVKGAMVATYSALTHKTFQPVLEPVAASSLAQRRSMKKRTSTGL

[21] = target: TNK2 (human) (UniProt Q07912); assay: KINOMEscan competition binding; conditions: compound 10.0 µM
[22] = target: GAK (human) (UniProt O14976); assay: KINOMEscan competition binding; conditions: compound 10.0 µM
Sequence of GAK (human) (O14976 whole entry, looked up): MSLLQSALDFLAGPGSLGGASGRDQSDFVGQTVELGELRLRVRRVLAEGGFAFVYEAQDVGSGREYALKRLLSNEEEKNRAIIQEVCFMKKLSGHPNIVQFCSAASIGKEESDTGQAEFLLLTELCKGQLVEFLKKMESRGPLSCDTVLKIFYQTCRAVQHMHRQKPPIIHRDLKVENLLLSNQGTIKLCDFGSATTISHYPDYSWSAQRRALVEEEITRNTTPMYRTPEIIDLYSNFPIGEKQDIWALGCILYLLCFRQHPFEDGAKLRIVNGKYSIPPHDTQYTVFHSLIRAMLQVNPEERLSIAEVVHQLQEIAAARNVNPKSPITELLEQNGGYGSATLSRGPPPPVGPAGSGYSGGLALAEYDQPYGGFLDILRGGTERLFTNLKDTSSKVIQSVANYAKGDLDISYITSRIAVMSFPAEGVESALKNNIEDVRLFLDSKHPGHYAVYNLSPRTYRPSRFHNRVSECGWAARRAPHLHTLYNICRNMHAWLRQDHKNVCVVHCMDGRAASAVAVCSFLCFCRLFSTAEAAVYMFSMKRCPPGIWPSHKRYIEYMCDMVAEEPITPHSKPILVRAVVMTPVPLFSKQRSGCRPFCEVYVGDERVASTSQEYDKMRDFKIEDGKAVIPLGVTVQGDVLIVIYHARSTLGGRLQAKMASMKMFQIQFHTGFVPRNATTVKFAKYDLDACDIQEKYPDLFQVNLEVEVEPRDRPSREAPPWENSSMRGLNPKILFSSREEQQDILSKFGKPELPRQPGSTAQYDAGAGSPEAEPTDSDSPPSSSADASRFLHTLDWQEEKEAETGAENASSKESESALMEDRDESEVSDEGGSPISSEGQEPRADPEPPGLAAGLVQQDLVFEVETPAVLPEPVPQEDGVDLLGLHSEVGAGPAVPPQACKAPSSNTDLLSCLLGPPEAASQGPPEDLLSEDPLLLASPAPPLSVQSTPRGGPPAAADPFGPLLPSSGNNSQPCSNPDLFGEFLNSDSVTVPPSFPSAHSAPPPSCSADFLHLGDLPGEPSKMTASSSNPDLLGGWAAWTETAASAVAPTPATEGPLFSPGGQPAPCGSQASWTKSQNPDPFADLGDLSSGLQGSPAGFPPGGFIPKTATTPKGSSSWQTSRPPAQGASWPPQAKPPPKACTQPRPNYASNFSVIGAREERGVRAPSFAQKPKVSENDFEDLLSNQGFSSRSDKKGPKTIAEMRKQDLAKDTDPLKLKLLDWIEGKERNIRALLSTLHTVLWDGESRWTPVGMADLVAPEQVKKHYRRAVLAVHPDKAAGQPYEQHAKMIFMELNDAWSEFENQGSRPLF

[23] = target: NLK (human) (UniProt Q9UBE8); assay: KINOMEscan competition binding; conditions: compound 10.0 µM
[24] = target: PLK1 (human) (UniProt P53350); assay: KINOMEscan competition binding; conditions: compound 10.0 µM
[25] = target: PLK3 (human) (UniProt Q9H4B4); assay: KINOMEscan competition binding; conditions: compound 10.0 µM
Sequence of PLK3 (human) (Q9H4B4 whole entry, looked up): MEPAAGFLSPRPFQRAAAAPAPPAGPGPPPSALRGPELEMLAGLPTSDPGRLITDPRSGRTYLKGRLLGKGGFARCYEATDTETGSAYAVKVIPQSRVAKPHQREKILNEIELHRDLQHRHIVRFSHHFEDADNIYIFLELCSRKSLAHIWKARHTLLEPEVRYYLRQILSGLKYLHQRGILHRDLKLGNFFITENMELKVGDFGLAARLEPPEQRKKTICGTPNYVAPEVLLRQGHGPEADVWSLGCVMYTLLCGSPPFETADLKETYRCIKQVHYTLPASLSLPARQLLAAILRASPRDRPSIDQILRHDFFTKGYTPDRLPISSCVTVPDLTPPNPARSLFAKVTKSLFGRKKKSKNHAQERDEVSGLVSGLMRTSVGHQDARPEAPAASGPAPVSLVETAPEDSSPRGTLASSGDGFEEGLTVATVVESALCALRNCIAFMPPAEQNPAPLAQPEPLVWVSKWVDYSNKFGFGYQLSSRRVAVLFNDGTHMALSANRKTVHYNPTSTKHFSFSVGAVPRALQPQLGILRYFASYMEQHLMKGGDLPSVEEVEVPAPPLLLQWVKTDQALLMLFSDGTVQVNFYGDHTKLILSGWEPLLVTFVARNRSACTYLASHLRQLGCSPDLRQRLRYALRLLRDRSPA

[26] = target: PLK4 (human) (UniProt O00444); assay: KINOMEscan competition binding; conditions: compound 10.0 µM
[27] = target: ROS1 (human) (UniProt P08922); assay: KINOMEscan competition binding; conditions: compound 10.0 µM
[28] = target: TNK1 (human) (UniProt Q13470); assay: KINOMEscan competition binding; conditions: compound 10.0 µM
[29] = target: TTK (human) (UniProt P33981); assay: KINOMEscan competition binding; conditions: for kinase still bound, per cent of control: compound 10.0 µM
[30] = target: CDK11A (human) (UniProt Q9UQ88); assay: KINOMEscan competition binding; conditions: compound 10.0 µM
[31] = target: ALK (human) (UniProt Q9UM73); assay: KINOMEscan competition binding; conditions: compound 10.0 µM
[32] = test system: EGFR (human), P00533 [747-751 del / S ins]; assay: KINOMEscan competition binding; conditions: compound 10.0 µM
[33] = test system: EGFR (human), P00533 [A750P; 747-749 del]; assay: KINOMEscan competition binding; conditions: compound 10.0 µM
[34] = test system: EGFR (human), P00533 [G719C; 746-750 del]; assay: KINOMEscan competition binding; conditions: compound 10.0 µM
[35] = test system: EGFR (human), P00533 [L861Q]; assay: KINOMEscan competition binding; conditions: compound 10.0 µM
[36] = test system: EGFR (human), P00533 [P753S; 747-752 del]; assay: KINOMEscan competition binding; conditions: compound 10.0 µM
[37] = target: IGF1R (human) (UniProt P08069); assay: KINOMEscan competition binding; conditions: compound 10.0 µM
[38] = target: INSRR (human) (UniProt P14616); assay: KINOMEscan competition binding; conditions: compound 10.0 µM
[39] = target: MYLK (human) (UniProt Q15746); assay: KINOMEscan competition binding; conditions: compound 10.0 µM
[40] = target: PTK2 (human) (UniProt Q05397); assay: KINOMEscan competition binding; conditions: compound 10.0 µM
[41] = target: PTK2B (human) (UniProt Q14289); assay: KINOMEscan competition binding; conditions: compound 10.0 µM
[42] = target: RPS6KA2 KD2 (human) (UniProt Q15349); assay: KINOMEscan competition binding; conditions: compound 10.0 µM
[43] = target: SLK (human) (UniProt Q9H2G2); assay: KINOMEscan competition binding; conditions: compound 10.0 µM
[44] = target: STK33 (human) (UniProt Q9BYT3); assay: KINOMEscan competition binding; conditions: compound 10.0 µM
[45] = target: ULK2 (human) (UniProt Q8IYT8); assay: KINOMEscan competition binding; conditions: compound 10.0 µM
[46] = target: CAMK1D (human) (UniProt Q8IU85); assay: KINOMEscan competition binding; conditions: compound 10.0 µM
[47] = target: CAMK2A (human) (UniProt Q9UQM7); assay: KINOMEscan competition binding; conditions: compound 10.0 µM
[48] = target: CLK1 (human) (UniProt P49759); assay: KINOMEscan competition binding; conditions: compound 10.0 µM
[49] = target: CLK2 (human) (UniProt P49760); assay: KINOMEscan competition binding; conditions: compound 10.0 µM
[50] = target: DAPK1 (human) (UniProt P53355); assay: KINOMEscan competition binding; conditions: compound 10.0 µM
[51] = target: DAPK3 (human) (UniProt O43293); assay: KINOMEscan competition binding; conditions: compound 10.0 µM
[52] = target: FER (human) (UniProt P16591); assay: KINOMEscan competition binding; conditions: compound 10.0 µM
[53] = target: JAK1 JH2 pseudokinase (human) (UniProt P23458); assay: KINOMEscan competition binding; conditions: compound 10.0 µM
[54] = target: PRKD3 (human) (UniProt O94806); assay: KINOMEscan competition binding; conditions: compound 10.0 µM
[55] = target: STK10 (human) (UniProt O94804); assay: KINOMEscan competition binding; conditions: compound 10.0 µM
[56] = target: TTK (human) (UniProt P33981); assay: SelectScreen, TR FRET

Sequence of CAMKK2 (human) (Q96RR4 whole entry, looked up): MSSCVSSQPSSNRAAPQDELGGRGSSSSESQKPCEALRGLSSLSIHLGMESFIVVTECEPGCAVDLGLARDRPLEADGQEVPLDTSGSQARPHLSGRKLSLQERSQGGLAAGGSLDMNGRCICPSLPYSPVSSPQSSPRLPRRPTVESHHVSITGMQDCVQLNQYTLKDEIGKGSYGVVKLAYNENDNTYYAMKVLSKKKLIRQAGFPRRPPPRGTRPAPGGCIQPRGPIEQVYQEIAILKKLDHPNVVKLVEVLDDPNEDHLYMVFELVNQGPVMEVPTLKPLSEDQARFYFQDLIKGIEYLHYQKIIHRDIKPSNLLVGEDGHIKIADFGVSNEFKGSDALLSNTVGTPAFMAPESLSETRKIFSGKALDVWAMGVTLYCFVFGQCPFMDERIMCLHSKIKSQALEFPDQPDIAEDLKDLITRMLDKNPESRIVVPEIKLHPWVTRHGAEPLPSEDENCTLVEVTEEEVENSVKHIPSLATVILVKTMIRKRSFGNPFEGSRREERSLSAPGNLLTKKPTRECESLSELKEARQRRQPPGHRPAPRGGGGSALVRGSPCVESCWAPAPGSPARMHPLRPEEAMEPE

Row | Compound | kinase still bound, per cent of control [2] | kinase still bound, per cent of control [3] | kinase still bound, per cent of control [6] | kinase still bound, per cent of control [7] | kinase still bound, per cent of control [15] | kinase still bound, per cent of control [19] | kinase still bound, per cent of control [20] | kinase still bound, per cent of control [22] | kinase still bound, per cent of control [24] | kinase still bound, per cent of control [25] | kinase still bound, per cent of control [26] | kinase still bound, per cent of control [29] | kinase still bound, per cent of control [31] | kinase still bound, per cent of control [37] | kinase still bound, per cent of control [38] | kinase still bound, per cent of control [39] | kinase still bound, per cent of control [40] | kinase still bound, per cent of control [41] | kinase still bound, per cent of control [42] | kinase still bound, per cent of control [43] | other results
1 | Nc1cnc(/C=C/c2ccc(-c3ccc(S(N)(=O)=O)cc3)o2)cn1 | 34% | 28% | – | – | – | – | – | – | – | – | – | – | – | – | – | – | – | – | – | – | kinase still bound, per cent of control [1]: 31%; kinase still bound, per cent of control [4]: 31%
2 | CC(C)Oc1cc(N2CCN(C)CC2)ccc1Nc1ncc2c(n1)N(C)c1ccccc1C(=O)N2 | – | – | 1.2% | 5.3% | 29% | 14% | 21% | – | – | – | – | – | – | – | – | – | – | – | – | – | kinase still bound, per cent of control [5]: 26%; kinase still bound, per cent of control [8]: 8.1%; kinase still bound, per cent of control [9]: 10%; kinase still bound, per cent of control [10]: 14%; kinase still bound, per cent of control [11]: 2.2%; kinase still bound, per cent of control [12]: 2.4%; kinase still bound, per cent of control [13]: 10%; kinase still bound, per cent of control [14]: 0.6%; kinase still bound, per cent of control [16]: 2.1%; kinase still bound, per cent of control [17]: 22%; kinase still bound, per cent of control [18]: 2.6%; kinase still bound, per cent of control [21]: 6.5%
3 | COc1cc(N2CCC(C(N)=O)CC2)ccc1Nc1ncc2c(n1)N(C1CCCC1)[C@@H]1CCC[C@@H]1C(=O)N2C | – | – | 15% | – | 0.1% | – | – | 12% | 19% | 4.3% | 28% | 10% | – | – | – | – | – | – | – | – | kinase still bound, per cent of control [23]: 31%; kinase still bound, per cent of control [27]: 31%; kinase still bound, per cent of control [28]: 18%
4 | CNS(=O)(=O)c1ccc(-c2ccc(C=C3C(=O)NC(=O)NC3=O)o2)cc1 | – | – | – | – | – | – | – | – | – | – | – | – | – | – | – | – | – | – | – | – | residual activity [30]: 28%
5 | COc1cc(N2CCC(N3CCN(C)CC3)CC2)ccc1Nc1ncc2c(n1)N(C1CCCC1)C(C)CC(=O)N2C (configuration not stated) | – | 33% | 5.2% | 30% | – | – | 33% | 1.6% | 7.2% | 5.9% | 26% | 2% | 5% | 29% | 33% | 11% | 1.2% | 4.2% | 16% | 5.6% | kinase still bound, per cent of control [32]: 34%; kinase still bound, per cent of control [33]: 27%; kinase still bound, per cent of control [34]: 32%; kinase still bound, per cent of control [35]: 30%; kinase still bound, per cent of control [36]: 34%; kinase still bound, per cent of control [44]: 9%; kinase still bound, per cent of control [45]: 24%
6 | COc1cc(C(=O)NC2CCN(C)CC2)ccc1Nc1ncc2c(n1)N(C1CCCC1)C(C)CC(=O)N2C (configuration not stated) | 34% | 24% | 4% | 19% | – | 22% | 12% | 3.8% | 19% | 0% | – | 4.6% | 6.2% | 32% | 26% | 2.8% | 0.4% | 13% | 5.8% | 1.4% | kinase still bound, per cent of control [46]: 17%; kinase still bound, per cent of control [47]: 21%; kinase still bound, per cent of control [48]: 18%; kinase still bound, per cent of control [49]: 6.2%; kinase still bound, per cent of control [50]: 26%; kinase still bound, per cent of control [51]: 17%; kinase still bound, per cent of control [52]: 31%; kinase still bound, per cent of control [53]: 22%; kinase still bound, per cent of control [54]: 32%; kinase still bound, per cent of control [55]: 29%; kinase still bound, per cent of control [44]: 3.6%; Kd [29]: 1.43 µM; IC50 [56]: 5.04 µM
